This note sets out measurements from the NIST ThermoML archive (doi:10.1021/je0201166).

For the data set the following is noted: Liquid; for mass density: 298.15 K, 101.33 kPa.

± gives the expanded uncertainty stated by the source.

In the case of `C1COCO1` [1,3-dioxolane], the mass density (usually mass per unit of volume) is given as 1058.6 ± 5 kg/m3 and the Normal boiling temperature was 75.42 ± 0.1 °C.

For `CO` [methanol], the mass density came to 786.7 ± 5 kg/m3 and the Normal boiling temperature amounted to 64.54 ± 0.1 °C.

With `O` [water], the mass density amounted to 997.2 ± 5 kg/m3 and the Normal boiling temperature was found to be 99.98 ± 0.1 °C.
